Measured values as given in ChEMBL document CHEMBL1151469, “Cytotoxic activity of N-chlorotaurine on Acanthamoeba spp” (Antimicrob Agents Chemother, 2008).
Calls of active or inactive are those of the source. No cut-off for these calls is given here.

Columns and labels:
Acanthamoeba polyphaga [1] = experiment: Amoebicidal activity against Trophozoites of Acanthamoeba polyphaga 5SU in phosphate buffered saline at pH 7 after 1 hr by hemocytometer using trypan blue stain; assay type: functional, organism-based
Acanthamoeba castellanii [2] = experiment: Amoebicidal activity against Trophozoites of Acanthamoeba castellanii 40AB assessed as log reduction in cell count at 20 mM in peptone yeast extract glucose medium at pH 7 after 24 hrs by hemocytometer using trypan blue stain; assay type: functional
Acanthamoeba castellanii [3] = experiment: Amoebicidal activity against excysted trophozoites of Acanthamoeba castellanii 40AB at 55 mM in peptone yeast extract glucose medium after 11 days by hemocytometer using trypan blue stain; assay type: functional
Acanthamoeba hatchetti [4] = experiment: Amoebicidal activity against Trophozoites of Acanthamoeba hatchetti 11DS assessed as rounding of the cells at 55 mM in phosphate buffered saline at pH 7 after 15 mins by hemocytometer using trypan blue stain; assay type: functional, organism-based
Acanthamoeba hatchetti [5] = experiment: Amoebicidal activity against Trophozoites of Acanthamoeba hatchetti 11DS assessed as reduction of killing time at 10 mM in phosphate buffered saline at pH 5 by hemocytometer using trypan blue stain in presence of 34 mM ammonium chloride; assay type: functional, organism-based
Acanthamoeba hatchetti [6] = experiment: Amoebicidal activity against Trophozoites of Acanthamoeba hatchetti 11DS assessed as killing time at 20 mM in peptone yeast extract glucose medium at pH 7 by hemocytometer using trypan blue stain; assay type: functional
Acanthamoeba polyphaga [7] = experiment: Amoebicidal activity against Trophozoites of Acanthamoeba polyphaga 5SU assessed as increase in cell killing at 10 mM in phosphate buffered saline at pH 7 within 3 hrs by hemocytometer using trypan blue stain in presence of 34 mM ammonium chloride; assay type: functional, organism-based
Acanthamoeba polyphaga [8] = experiment: Amoebicidal activity against Trophozoites of Acanthamoeba polyphaga 5SU in phosphate buffered saline at pH 7 after 24 hrs by hemocytometer using trypan blue stain; assay type: functional, organism-based
Acanthamoeba hatchetti [9] = experiment: Amoebicidal activity against Trophozoites of Acanthamoeba hatchetti 11DS assessed as log reduction in cell count at 10 mM in phosphate buffered saline at pH 5 within 1 hr by hemocytometer using trypan blue stain in presence of 290 mM ammonium chloride; assay type: functional
Acanthamoeba polyphaga [10] = experiment: Amoebicidal activity against Trophozoites of Acanthamoeba polyphaga 5SU assessed as killing time at 20 mM in peptone yeast extract glucose medium at pH 7 by hemocytometer using trypan blue stain; assay type: functional
Acanthamoeba polyphaga [11] = experiment: Amoebicidal activity against Trophozoites of Acanthamoeba polyphaga 5SU assessed as killing time at 55 mM in peptone yeast extract glucose medium at pH 7 by hemocytometer using trypan blue stain; assay type: functional
Acanthamoeba castellanii [12] = experiment: Amoebicidal activity against Trophozoites of Acanthamoeba castellanii 4CL assessed as killing time at 20 mM in peptone yeast extract glucose medium at pH 7 by hemocytometer using trypan blue stain; assay type: functional
Acanthamoeba castellanii [13] = experiment: Amoebicidal activity against Trophozoites of Acanthamoeba castellanii 40AB assessed as killing time at 10 mM in phosphate buffered saline at pH 7 by hemocytometer using trypan blue stain; assay type: functional
Acanthamoeba hatchetti [14] = experiment: Amoebicidal activity against excysted trophozoites of Acanthamoeba hatchetti 11DS at 55 mM in peptone yeast extract glucose medium after 6 days by hemocytometer using trypan blue stain; assay type: functional
Acanthamoeba polyphaga [15] = experiment: Amoebicidal activity against Trophozoites of Acanthamoeba polyphaga 5SU assessed as reduction killing time at 55 mM in phosphate buffered saline at pH 7 by hemocytometer using trypan blue stain; assay type: functional, organism-based
Acanthamoeba polyphaga [16] = experiment: Amoebicidal activity against Trophozoites of Acanthamoeba polyphaga 5SU assessed as log reduction in cell count at 10 mM in phosphate buffered saline at pH 7 after 6 hrs by hemocytometer using trypan blue stain; assay type: functional
Acanthamoeba polyphaga [17] = experiment: Amoebicidal activity against Trophozoites of Acanthamoeba polyphaga 5SU assessed as killing time at 10 mM in phosphate buffered saline at pH 7 by hemocytometer using trypan blue stain; assay type: functional
Acanthamoeba polyphaga [18] = experiment: Amoebicidal activity against Trophozoites of Acanthamoeba polyphaga 5SU assessed as rounding of cells at 55 mM in phosphate buffered saline at pH 7 after 15 mins by hemocytometer using trypan blue stain in presence of 190 mM ammonium chloride; assay type: functional, organism-based
Acanthamoeba hatchetti [19] = experiment: Amoebicidal activity against Trophozoites of Acanthamoeba hatchetti 11DS assessed as log reduction in cell count at 20 mM in peptone yeast extract glucose medium at pH 7 after 24 hrs by hemocytometer using trypan blue stain; assay type: functional
Acanthamoeba polyphaga [20] = experiment: Amoebicidal activity against Trophozoites of Acanthamoeba polyphaga 5SU assessed as log reduction in cell count at 20 mM in peptone yeast extract glucose medium at pH 7 after 24 hrs by hemocytometer using trypan blue stain; assay type: functional
Acanthamoeba hatchetti [21] = experiment: Amoebicidal activity against Trophozoites of Acanthamoeba hatchetti 11DS at 55 mM in phosphate buffered saline at pH 7 after 1 hr by hemocytometer using trypan blue staining in presence of 190 mM ammonium chloride; assay type: functional, organism-based
Acanthamoeba hatchetti [22] = experiment: Amoebicidal activity against Trophozoites of Acanthamoeba hatchetti 11DS assessed as log reduction in cell count at 10 mM in phosphate buffered saline at pH 5 after 24 hrs by hemocytometer using trypan blue stain; assay type: functional, organism-based
Acanthamoeba polyphaga [23] = experiment: Amoebicidal activity against Trophozoites of Acanthamoeba polyphaga 5SU in phosphate buffered saline at pH 7 after 1 hr by hemocytometer using trypan blue stain in presence of 34 mM ammonium chloride; assay type: functional, organism-based
Acanthamoeba hatchetti [24] = experiment: Amoebicidal activity against Trophozoites of Acanthamoeba hatchetti 11DS assessed as reduction in cell count at 10 mM in phosphate buffered saline at pH 7 within 1 hr by hemocytometer using trypan blue stain in presence of 290 mM ammonium chloride; assay type: functional, organism-based
Acanthamoeba hatchetti [25] = experiment: Amoebicidal activity against Trophozoites of Acanthamoeba hatchetti 11DS in phosphate buffered saline at pH 7 after 24 hrs by hemocytometer using trypan blue stain; assay type: functional, organism-based
Acanthamoeba polyphaga [26] = experiment: Amoebicidal activity against Trophozoites of Acanthamoeba polyphaga 5SU in peptone yeast extract glucose medium at pH 7 after 24 hrs by hemocytometer using trypan blue stain; assay type: functional, organism-based
Acanthamoeba hatchetti [27] = experiment: Amoebicidal activity against Trophozoites of Acanthamoeba hatchetti 11DS in phosphate buffered saline at pH 7 after 6 hrs by hemocytometer using trypan blue stain; assay type: functional, organism-based
Acanthamoeba hatchetti [28] = experiment: Amoebicidal activity against Trophozoites of Acanthamoeba hatchetti 11DS assessed as log reduction in cell count at 10 mM in phosphate buffered saline at pH 5 after 24 hrs by hemocytometer using trypan blue stain in presence of 34 mM ammonium chloride; assay type: functional, organism-based
Acanthamoeba polyphaga [29] = experiment: Amoebicidal activity against Trophozoites of Acanthamoeba polyphaga 5SU assessed as rounding of the cells at 55 mM in peptone yeast extract glucose medium at pH 7 after 30 mins by hemocytometer using trypan blue stain; assay type: functional, organism-based
Acanthamoeba hatchetti [30] = experiment: Amoebicidal activity against Trophozoites of Acanthamoeba hatchetti 11DS in phosphate buffered saline at pH 7 after 1 hr by hemocytometer using trypan blue stain in presence of 34 mM ammonium chloride; assay type: functional, organism-based
Acanthamoeba polyphaga [31] = experiment: Amoebicidal activity against Trophozoites of Acanthamoeba polyphaga 5SU assessed as killing time at 0.16 M in peptone yeast extract glucose medium at pH 7 by hemocytometer using trypan blue stain; assay type: functional
Acanthamoeba hatchetti [32] = experiment: Amoebicidal activity against Trophozoites of Acanthamoeba hatchetti 11DS in phosphate buffered saline at pH 7 after 1 hr by hemocytometer using trypan blue stain; assay type: functional, organism-based
Acanthamoeba hatchetti [33] = experiment: Amoebicidal activity against Trophozoites of Acanthamoeba hatchetti 11DS assessed as killing time at 0.16 M in peptone yeast extract glucose medium at pH 7 by hemocytometer using trypan blue stain; assay type: functional
Acanthamoeba polyphaga [34] = experiment: Amoebicidal activity against Trophozoites of Acanthamoeba polyphaga 5SU in peptone yeast extract glucose medium at pH 7 after 24 hrs by hemocytometer using trypan blue stain in presence of 68 mM ammonium chloride; assay type: functional, organism-based

Compound `O=S(=O)(O)CCNCl` has an EC50 (Acanthamoeba polyphaga [1]) of 29.3 mM, an Activity (Acanthamoeba castellanii [2]) of 2 and an Activity (Acanthamoeba castellanii [3]) of 130000. For the same compound, the Activity (Acanthamoeba hatchetti [4]) was “Active”, the Activity (Acanthamoeba hatchetti [5]) was “inactive” and the Activity (Acanthamoeba hatchetti [6]) was 36 h. For the same compound, the Activity (Acanthamoeba polyphaga [7]) was “Active”, the EC50 (Acanthamoeba polyphaga [8]) was 3.47 mM and the EC90 (Acanthamoeba polyphaga [8]) was 7.38 mM. It also gave an Activity (Acanthamoeba hatchetti [9]) of 2, an Activity (Acanthamoeba polyphaga [10]) of 36 h and an Activity (Acanthamoeba polyphaga [11]) of 3 h. The Activity (Acanthamoeba castellanii [12]) was 36 h, the Activity (Acanthamoeba castellanii [13]) was 30 h and the Activity (Acanthamoeba hatchetti [14]) was 210000. For the same compound, the Activity (Acanthamoeba polyphaga [15]) was “Active”, the Activity (Acanthamoeba polyphaga [16]) was 2 and the Activity (Acanthamoeba polyphaga [17]) was 15 h. The Activity (Acanthamoeba polyphaga [18]) was “Active”, the Activity (Acanthamoeba hatchetti [19]) was 2 and the Activity (Acanthamoeba polyphaga [20]) was 2. The Activity (Acanthamoeba hatchetti [21]) was “inactive”, the Activity (Acanthamoeba hatchetti [22]) was “Active” and the EC50 (Acanthamoeba polyphaga [23]) was 5.31 mM. For the same compound, the EC90 (Acanthamoeba polyphaga [23]) was 9.5 mM, the Activity (Acanthamoeba hatchetti [24]) was “Active” and the EC50 (Acanthamoeba hatchetti [25]) was 3.65 mM. The EC90 (Acanthamoeba hatchetti [25]) was 7.56 mM, the EC50 (Acanthamoeba polyphaga [26]) was 8.1 mM and the EC50 (Acanthamoeba hatchetti [27]) was 3.89 mM. The EC90 (Acanthamoeba hatchetti [27]) was 7.71 mM, the Activity (Acanthamoeba hatchetti [28]) was “inactive” and the Activity (Acanthamoeba polyphaga [29]) was “Active”. For the same compound, the EC50 (Acanthamoeba hatchetti [30]) was 12.9 mM, the Activity (Acanthamoeba polyphaga [31]) was 30 min and the EC50 (Acanthamoeba hatchetti [32]) was 15.5 mM. The Activity (Acanthamoeba hatchetti [33]) was 1 h and the EC50 (Acanthamoeba polyphaga [34]) was 10.2 mM.
